The text below walks through data of patent US20140291659A1, “DIOXAANTHANTHRENE COMPOUND, LAMINATED STRUCTURE AND FORMATION METHOD THEREOF, AND ELECTRONIC DEVICE AND MANUFACTURING METHOD THEREOF” (Sony Corporation, priority 2011, published 2014).

The data set is described as follows: Solubility in an organic solvent (toluene). The data set is classed as physicochemical. The settings on record: for Solubility: grams of PXX compound dissolving in 10 grams of toluene. How it is done:
The melting point and the mesophase transition temperature of the PXX compound can be determined by TG-DTA (thermogravimetry/differential thermal analysis) and DSC (differential scanning calorimetry). Further, solubility in an organic solvent was measured. […] In Table 1, the mesophase transition temperature is denoted as “transition temperature”. […]

`CC(C)c1ccc(-c2ccc3oc4ccc5c(-c6ccc(C(C)C)cc6)ccc6oc7ccc2c3c7-c4c65)cc1` [Comparative Example 2D] returned a Solubility of 0.37 g. Besides, the “Amount dissolved in toluene” value (in 100 grams of toluene) is given as 0.37 grams. Consider `CC(C)Cc1ccc(-c2ccc3oc4ccc5c(-c6ccc(CC(C)C)cc6)ccc6oc7ccc2c3c7-c4c65)cc1` [Working Example 2A], for which the Solubility stood at 1.5 g.

With `CC(C)CCc1ccc(-c2ccc3oc4ccc5c(-c6ccc(CCC(C)C)cc6)ccc6oc7ccc2c3c7-c4c65)cc1` [Working Example 2B], the Solubility was found to be 1.3 g.
